According to patent US20250332178A1, “METHODS OF TREATING MYCOBACTERIAL INFECTIONS USING TETRACYCLINE COMPOUNDS” (priority 2018, published 2025):
In brackets after ≈: the same amount, converted by molar mass.

Legend:
Mycobacterium abscessus = assay: MIC by broth microdilution in CAMHB, clinical isolates; assay type: cell-based; settings: Mycobacteroides abscessus
Mycobacterium chelonae = assay: as above; assay type: cell-based
Mycobacterium fortuitum = assay: as above; assay type: cell-based; settings: Mycolicibacterium fortuitum
[1] = tested on: rapid-growing mycobacteria (RGM) isolates; assay: MIC (CLSI broth dilution), all RGM isolates; assay type: cell-based, nontuberculous mycobacteria
M. abscessus complex = assay: MIC (CLSI broth dilution), RGM isolates; assay type: cell-based; settings: Mycobacteroides abscessus
M. chelonae = assay: MIC (CLSI broth dilution), RGM isolates; assay type: cell-based; settings: Mycobacteroides chelonae
M. fortuitum group = assay: MIC (CLSI broth dilution), RGM isolates; assay type: cell-based; settings: Mycolicibacterium fortuitum
M. immunogenum group = assay: MIC (CLSI broth dilution), RGM isolates; assay type: cell-based; settings: M. immunogenum
M. mucogenium group = assay: MIC (CLSI broth dilution), RGM isolates; assay type: cell-based
M. smegmatis group = assay: MIC (CLSI broth dilution), RGM isolates; assay type: cell-based; settings: Mycolicibacterium smegmatis

CN(C)c1cc(NC(=O)CNC(C)(C)C)c(O)c2c1C[C@H]1C[C@H]3[C@H](N(C)C)C(O)=C(C(N)=O)C(=O)[C@@]3(O)C(O)=C1C2=O [Tigecycline, tigecycline]
MIC50 (Mycobacterium abscessus): 1 µg/mL (≈ 1.71 µM)
MIC90 (Mycobacterium abscessus): 2 µg/mL (≈ 3.41 µM)
MIC (Mycobacterium abscessus; isolate No. 1, BB2): 2 µg/mL (≈ 3.41 µM)
MIC (Mycobacterium abscessus; isolate No. 2, BB4): 2 µg/mL (≈ 3.41 µM)
MIC (Mycobacterium abscessus; isolate No. 3, 5922): 0.25 µg/mL (≈ 0.427 µM)
MIC (Mycobacterium abscessus; isolate No. 4, BB3): 0.06 µg/mL (≈ 0.102 µM)
MIC (Mycobacterium abscessus; isolate No. 5, BB6): 0.125 µg/mL (≈ 0.213 µM)
MIC (Mycobacterium abscessus; isolate No. 6, 5908): 2 µg/mL (≈ 3.41 µM)
MIC (Mycobacterium abscessus; isolate No. 7, BB7): 2 µg/mL (≈ 3.41 µM)
MIC (Mycobacterium abscessus; isolate No. 8, 6031): 1 µg/mL (≈ 1.71 µM)
MIC (Mycobacterium abscessus; isolate No. 9, 5785): 0.5 µg/mL (≈ 0.854 µM)
MIC (Mycobacterium abscessus; isolate No. 11, 6111): 0.5 µg/mL (≈ 0.854 µM)
MIC (Mycobacterium abscessus; isolate No. 12, 6005): 0.5 µg/mL (≈ 0.854 µM)
MIC (Mycobacterium abscessus; isolate No. 16, BB5): 1 µg/mL (≈ 1.71 µM)
MIC (Mycobacterium abscessus; isolate No. 19, 5960): 8 µg/mL (≈ 13.7 µM)
MIC (Mycobacterium abscessus; isolate No. 23, 6025): 1 µg/mL (≈ 1.71 µM)
MIC50 (Mycobacterium chelonae): 0.06 µg/mL (≈ 0.102 µM)
MIC50 (Mycobacterium fortuitum): 0.25 µg/mL (≈ 0.427 µM)
MIC90 (Mycobacterium fortuitum): 0.25 µg/mL (≈ 0.427 µM)
MIC (Mycobacterium fortuitum; isolate No. 1, 3349): 0.25 µg/mL (≈ 0.427 µM)
MIC (Mycobacterium fortuitum; isolate No. 2, 3499): 0.015 µg/mL (≈ 0.0256 µM)
MIC (Mycobacterium fortuitum; isolate No. 3, 2797): 0.06 µg/mL (≈ 0.102 µM)
MIC (Mycobacterium fortuitum; isolate No. 4, 32): 0.25 µg/mL (≈ 0.427 µM)
MIC (Mycobacterium fortuitum; isolate No. 5, 33): 0.125 µg/mL (≈ 0.213 µM)
MIC (Mycobacterium fortuitum; isolate No. 6, 3489): 0.015 µg/mL (≈ 0.0256 µM)
MIC (Mycobacterium fortuitum; isolate No. 7, 3491): 0.015 µg/mL (≈ 0.0256 µM)
MIC (Mycobacterium fortuitum; isolate No. 8, 54): 0.03 µg/mL (≈ 0.0512 µM)
MIC (Mycobacterium fortuitum; isolate No. 9, 38): 0.06 µg/mL (≈ 0.102 µM)
MIC (Mycobacterium fortuitum; isolate No. 10, 36): 0.03 µg/mL (≈ 0.0512 µM)
MIC (Mycobacterium fortuitum; isolate No. 11, 3480): 0.25 µg/mL (≈ 0.427 µM)
MIC (Mycobacterium fortuitum; isolate No. 12, 3126): 0.25 µg/mL (≈ 0.427 µM)
MIC (Mycobacterium fortuitum; isolate No. 13, 3579): 0.25 µg/mL (≈ 0.427 µM)
MIC (Mycobacterium fortuitum; isolate No. 14, 7484): 0.5 µg/mL (≈ 0.854 µM)
MIC (Mycobacterium fortuitum; isolate No. 15, 3488): 0.25 µg/mL (≈ 0.427 µM)
MIC (Mycobacterium fortuitum; isolate No. 16, 3276): 0.25 µg/mL (≈ 0.427 µM)
MIC (Mycobacterium fortuitum; isolate No. 17, 3442): 1 µg/mL (≈ 1.71 µM)
MIC (Mycobacterium fortuitum; isolate No. 18, 3316): 0.25 µg/mL (≈ 0.427 µM)
MIC (Mycobacterium fortuitum; isolate No. 19, 3490): 0.25 µg/mL (≈ 0.427 µM)
MIC (Mycobacterium fortuitum; isolate No. 20, 2491): 0.5 µg/mL (≈ 0.854 µM)
MIC50 [1]: 0.125 µg/mL (≈ 0.213 µM)
MIC90 [1]: 0.25 µg/mL (≈ 0.427 µM)
MIC (M. abscessus complex; isolate 1, M. abscessus complex, erm gene type MAB30): 0.12 µg/mL (≈ 0.205 µM)
MIC (M. abscessus complex; isolate 2, M. abscessus complex, erm gene type MAB30): 0.12 µg/mL (≈ 0.205 µM)
MIC (M. abscessus complex; isolate 3, M. abscessus complex, erm gene type MAB30): 0.25 µg/mL (≈ 0.427 µM)
MIC (M. abscessus complex; isolate 4, M. abscessus complex, erm gene type massiliense): 0.25 µg/mL (≈ 0.427 µM)
MIC (M. abscessus complex; isolate 5, M. abscessus complex, erm gene type massiliense/subsp. abs hybrid): 0.25 µg/mL (≈ 0.427 µM)
MIC (M. abscessus complex; isolate 6, M. abscessus complex, erm gene type Type 1 abscessus): 0.12 µg/mL (≈ 0.205 µM)
MIC (M. abscessus complex; isolate 7, M. abscessus complex, erm gene type Type 1 abscessus): 0.25 µg/mL (≈ 0.427 µM)
MIC (M. abscessus complex; isolate 8, M. abscessus complex, erm gene type Type 1 abscessus): 0.12 µg/mL (≈ 0.205 µM)
MIC (M. abscessus complex; isolate 9, M. abscessus complex, erm gene type Type 1 abscessus): 0.25 µg/mL (≈ 0.427 µM)
MIC (M. abscessus complex; isolate 10, M. abscessus complex, erm gene type Type 1 abscessus): 0.12 µg/mL (≈ 0.205 µM)
MIC (M. abscessus complex; isolate 11, M. abscessus complex, erm gene type Type 6 abscessus): 0.06 µg/mL (≈ 0.102 µM)
MIC (M. abscessus complex; isolate 12, M. abscessus complex, erm gene type Type 6 abscessus): 0.12 µg/mL (≈ 0.205 µM)
MIC (M. abscessus complex; isolate 13, M. abscessus complex, erm gene type Type 6 abscessus): 0.25 µg/mL (≈ 0.427 µM)
MIC (M. abscessus complex; isolate 14, M. abscessus complex, erm gene type Type 6 abscessus): 0.12 µg/mL (≈ 0.205 µM)
MIC (M. abscessus complex; isolate 15, M. abscessus complex, erm gene type Type 7 abscessus): 0.06 µg/mL (≈ 0.102 µM)
MIC (M. abscessus complex; isolate 16, M. abscessus complex, erm gene type Type 7 abscessus): 0.12 µg/mL (≈ 0.205 µM)
MIC (M. abscessus complex; isolate 17, M. abscessus complex, erm gene type Type 8 abscessus): 0.12 µg/mL (≈ 0.205 µM)
MIC (M. chelonae; isolate 18, M. chelonae): 0.12 µg/mL (≈ 0.205 µM)
MIC (M. chelonae; isolate 19, M. chelonae): 0.25 µg/mL (≈ 0.427 µM)
MIC (M. chelonae; isolate 20, M. chelonae): 0.12 µg/mL (≈ 0.205 µM)
MIC (M. chelonae; isolate 21, M. chelonae): 0.5 µg/mL (≈ 0.854 µM)
MIC (M. chelonae; isolate 22, M. chelonae): 0.25 µg/mL (≈ 0.427 µM)
MIC (M. fortuitum group; isolate 23, M. fortuitum group, M. fortuitum): 0.03 µg/mL (≈ 0.0512 µM)
MIC (M. fortuitum group; isolate 24, M. fortuitum group, M. fortuitum): 0.12 µg/mL (≈ 0.205 µM)
MIC (M. fortuitum group; isolate 25, M. fortuitum group, M. fortuitum): ≤ 0.015 µg/mL
MIC (M. fortuitum group; isolate 26, M. fortuitum group, M. porcinum): ≤ 0.015 µg/mL
MIC (M. fortuitum group; isolate 27, M. fortuitum group, M. porcinum): 0.03 µg/mL (≈ 0.0512 µM)
MIC (M. fortuitum group; isolate 28, M. fortuitum group, M. porcinum/M. boenickei): 0.03 µg/mL (≈ 0.0512 µM)
MIC (M. fortuitum group; isolate 29, M. fortuitum group, M. porcinum/M. boenickei): 0.03 µg/mL (≈ 0.0512 µM)
MIC (M. fortuitum group; isolate 30, M. fortuitum group, M. porcinum/M. boenickei): 0.03 µg/mL (≈ 0.0512 µM)
MIC (M. fortuitum group; isolate 31, M. fortuitum group, M. senegalense): 0.06 µg/mL (≈ 0.102 µM)
MIC (M. fortuitum group; isolate 32, M. fortuitum group, M. senegalense): 0.03 µg/mL (≈ 0.0512 µM)
MIC (M. fortuitum group; isolate 33, M. fortuitum group, M. senegalense): 0.03 µg/mL (≈ 0.0512 µM)
MIC (M. fortuitum group; isolate 34, M. fortuitum group, M. senegalense): 0.03 µg/mL (≈ 0.0512 µM)
MIC (M. immunogenum group; isolate 35, M. immunogenum group): 0.5 µg/mL (≈ 0.854 µM)
MIC (M. immunogenum group; isolate 36, M. immunogenum group): 0.12 µg/mL (≈ 0.205 µM)
MIC (M. immunogenum group; isolate 37, M. immunogenum group): 0.5 µg/mL (≈ 0.854 µM)
MIC (M. immunogenum group; isolate 38, M. immunogenum group): 0.5 µg/mL (≈ 0.854 µM)
MIC (M. mucogenium group; isolate 39, M. mucogenicum group, M. mucogenicum): 0.12 µg/mL (≈ 0.205 µM)
MIC (M. mucogenium group; isolate 40, M. mucogenicum group, M. mucogenicum): 0.06 µg/mL (≈ 0.102 µM)
MIC (M. mucogenium group; isolate 41, M. mucogenicum group, M. mucogenicum): 0.06 µg/mL (≈ 0.102 µM)
MIC (M. mucogenium group; isolate 42, M. mucogenicum group, M. mucogenicum): 0.12 µg/mL (≈ 0.205 µM)
MIC (M. mucogenium group; isolate 43, M. mucogenicum group, M. phocaicum): 0.12 µg/mL (≈ 0.205 µM)
MIC (M. mucogenium group; isolate 44, M. mucogenicum group, M. phocaicum): 0.06 µg/mL (≈ 0.102 µM)
MIC (M. mucogenium group; isolate 45, M. mucogenicum group, M. phocaicum): 0.25 µg/mL (≈ 0.427 µM)
MIC (M. mucogenium group; isolate 46, M. mucogenicum group, M. phocaicum): 0.06 µg/mL (≈ 0.102 µM)
MIC (M. mucogenium group; isolate 47, M. mucogenicum group, M. phocaicum): 0.25 µg/mL (≈ 0.427 µM)
MIC (M. mucogenium group; isolate 48, M. mucogenicum group, M. phocaicum): 0.03 µg/mL (≈ 0.0512 µM)
MIC (M. smegmatis group; isolate 49, M. smegmatis group, M. goodii): ≤ 0.015 µg/mL
MIC (M. smegmatis group; isolate 50, M. smegmatis group, M. wolinskyi): 0.03 µg/mL (≈ 0.0512 µM)
